Source: patent US11845726B2
pEC50, pIC50, pKi: −log10 of the molar value. Values joined by “and” are separate entries in the source; they are usually repeats but may differ in a detail not shown here. Equal entries are not always repeated. “Also recorded” adds a separate entry of the source.

Legend:
[1] = molecular target: T1, 5-HT2A receptor (Mus musculus, UniProt P35363); assay: Drug-induced Head Twitch Response (HTR); format: in vivo, mice; conditions: 1 mg/kg i.p., 15-to-30-minute window after administration
T1 construct: tissue Charles River; host or cells: living C57BL/6-Elite mice (neuronal receptor)

[2] = molecular target: T2, 5-HT1A receptor (Homo sapiens, UniProt P08908); assay: cAMP-Glo assay of 5-HT1A receptor modulation in +5-HT1A and -5-HT1A CHO-K1 cells; format: cell-based; conditions: for cAMP levels / 5-HT1A receptor modulation: forskolin-stimulated +5-HT1A vs -5-HT1A cells
T2 construct: host or cells: CHO-K1 co-expressing Ga15
T2 sequence (P08908 1-422): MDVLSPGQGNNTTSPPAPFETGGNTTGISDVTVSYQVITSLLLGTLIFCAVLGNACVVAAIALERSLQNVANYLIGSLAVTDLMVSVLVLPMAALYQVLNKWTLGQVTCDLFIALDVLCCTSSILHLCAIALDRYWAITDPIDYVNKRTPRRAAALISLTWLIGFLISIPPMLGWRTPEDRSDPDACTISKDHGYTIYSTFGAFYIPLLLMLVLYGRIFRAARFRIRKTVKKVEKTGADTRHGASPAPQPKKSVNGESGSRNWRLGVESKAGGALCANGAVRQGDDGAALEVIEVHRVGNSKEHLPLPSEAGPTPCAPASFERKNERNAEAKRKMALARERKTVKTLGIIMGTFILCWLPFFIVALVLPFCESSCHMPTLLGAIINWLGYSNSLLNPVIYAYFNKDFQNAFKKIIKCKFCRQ

[3] = Mouse pharmacokinetic (PK) evaluation of drug metabolism to psilocin; conditions: for administered compound in plasma after oral dosing: any dose
[4] = in vitro; format: in vitro ADME, human; conditions: for half-life: human
Description: A fundamental evaluation in drug development is the assessment of absorption, distribution, metabolism, excretion, and pharmacokinetics (ADME/PK) (Eddershaw et al., 2000, Drug Discovery Today 5(9): 409-414). […] Drug stability upon exposure to human liver microsomes and liver S9 cellular fractions is a common in vitro assay to approximate in vivo, liver-based drug metabolism (Richardson et al., 2016 Drug Metabolism Letters 10:83-90). First-pass metabolism is also often approximated in vitro using intestinal microsome and cellular S9 fractions (Hatley et al., 2017, Biopharmaceuticals & Drug Disposition, 38(2):155-160). Further, it is well known that human serum, and particularly circulating serum esterases can contribute to systemic drug metabolism (Williams, F M 1987, Pharmacology and Therapeutics, 34:99-109). Many pharmacological agents are classified as prodrugs, as they undergo metabolic transformation in vivo upon administration to release the active drug compound into the systemic compartment (Zawilska J B, et al. 2013, Pharmacological Reports, 65:1-14). Psilocybin, a serotonergic psychedelic agent, is well known prodrug that is metabolized into the psychoactive product, psilocin (Dinis-Oliveira, R J 2017, Drug Metabolism Reviews, 49(1):84-91). To evaluate the capacity of test molecules to similarly serve as prodrugs of psilocin, time-dependent, metabolic stability assays using human AB serum, human intestinal microsomes (HIM), human intestinal S9 fractions (HIS9), human liver microsomes (HLM), human liver S9 fractions (HLS9), human alkaline phosphatase, and porcine esterase were performed. […] Liquid chromatography coupled mass spectrometry (LC-MS) was employed to track the conversion of the test molecules into psilocin. All intestinal and liver fractions and NADPH RapidStart reagent was purchased from Sekisui/XenoTech. Human AB serum was purchased from Sigma. For intestine and liver metabolism assays, 2.5 μM candidate compounds were incubated in 400 μg/ml of each cellular fraction (HLM, HLS9, HIM, or HIS9) in 50 mM potassium phosphate buffer (pH 7.4) containing 3 mM MgCl2 and 1 mM EDTA supplemented with NADPH RapidStart at 37° C. Samples were taken at the start of the assay, and at every 20 minutes for 2 hours. Time-point samples were precipitated with 1:1 volume of acetonitrile to quench the reaction before centrifugation at 4000×g for 20 minutes. Supernatants were analyzed for the presence of candidate prodrugs (parent molecule) and psilocin (the predicted metabolite) using Orbitrap LC-MS (Thermo Scientific) using previously described methods (Menéndez-Perdomo et al., 2021, J. Mass Spectrom., 56: e4683). The serum assays were carried out in 10% human AB serum in 50 mM potassium phosphate buffer (pH 7.4) containing 3 mM MgCl2 and 1 mM EDTA. Bovine alkaline phosphatase assays were carried out using one unit of purified enzyme in 50 mM potassium phosphate buffer (pH 7.4) containing 3 mM MgCl2 and 1 mM EDTA. Porcine esterase assays were carried out using one unit of purified enzyme in 50 mM potassium phosphate buffer (pH 7.4) containing 3 mM MgCl2 and 1 mM EDTA. Assay concentrations (μM) of both parent ‘prodrug’ molecule and psilocin metabolite, as quantified through LC-MS using routine standard curve procedures, were plotted as functions of assay time (minutes). The metabolism rate (T1/2) was determined from the metabolism curve plot using the one phase decay feature of GraphPad PRISM software (Version 9.2.0). The quantity of parent prodrug at time zero was set as 100%.
Positive controls were first tested to ensure that assays were functioning properly.

[5] = molecular target: 5-HT2A receptor (Homo sapiens, UniProt P28223); assay: [3H]ketanserin competition binding assay (SPA); conditions: for 5-HT2A competition binding: control ligands, [3H]ketanserin competition
[6] = In vitro metabolic stability / psilocin release in AB serum; format: in vitro ADME, human
Description: A fundamental evaluation in drug development is the assessment of absorption, distribution, metabolism, excretion, and pharmacokinetics (ADME/PK) (Eddershaw et al., 2000, Drug Discovery Today 5(9): 409-414). […] Drug stability upon exposure to human liver microsomes and liver S9 cellular fractions is a common in vitro assay to approximate in vivo, liver-based drug metabolism (Richardson et al., 2016 Drug Metabolism Letters 10:83-90). First-pass metabolism is also often approximated in vitro using intestinal microsome and cellular S9 fractions (Hatley et al., 2017, Biopharmaceuticals & Drug Disposition, 38(2):155-160). Further, it is well known that human serum, and particularly circulating serum esterases can contribute to systemic drug metabolism (Williams, F M 1987, Pharmacology and Therapeutics, 34:99-109). Many pharmacological agents are classified as prodrugs, as they undergo metabolic transformation in vivo upon administration to release the active drug compound into the systemic compartment (Zawilska J B, et al. 2013, Pharmacological Reports, 65:1-14). Psilocybin, a serotonergic psychedelic agent, is well known prodrug that is metabolized into the psychoactive product, psilocin (Dinis-Oliveira, R J 2017, Drug Metabolism Reviews, 49(1):84-91). […] Supernatants were analyzed for the presence of candidate prodrugs (parent molecule) and psilocin (the predicted metabolite) using Orbitrap LC-MS (Thermo Scientific) using previously described methods (Menéndez-Perdomo et al., 2021, J. Mass Spectrom., 56: e4683). […] Assay concentrations (μM) of both parent ‘prodrug’ molecule and psilocin metabolite, as quantified through LC-MS using routine standard curve procedures, were plotted as functions of assay time (minutes). The metabolism rate (T1/2) was determined from the metabolism curve plot using the one phase decay feature of GraphPad PRISM software (Version 9.2.0). The quantity of parent prodrug at time zero was set as 100%. […]

[7] = test system: HepG2 cells; assay: PrestoBlue cell viability assay; conditions: 48 hours
[8] = test system: GABAA; format: cell-based
[9] = Stability in enzyme-free control buffer; format: in vitro ADME; conditions: assay buffer without enzymes
Description: A fundamental evaluation in drug development is the assessment of absorption, distribution, metabolism, excretion, and pharmacokinetics (ADME/PK) (Eddershaw et al., 2000, Drug Discovery Today 5(9): 409-414). […] Drug stability upon exposure to human liver microsomes and liver S9 cellular fractions is a common in vitro assay to approximate in vivo, liver-based drug metabolism (Richardson et al., 2016 Drug Metabolism Letters 10:83-90). First-pass metabolism is also often approximated in vitro using intestinal microsome and cellular S9 fractions (Hatley et al., 2017, Biopharmaceuticals & Drug Disposition, 38(2):155-160). […] Supernatants were analyzed for the presence of candidate prodrugs (parent molecule) and psilocin (the predicted metabolite) using Orbitrap LC-MS (Thermo Scientific) using previously described methods (Menéndez-Perdomo et al., 2021, J. Mass Spectrom., 56: e4683). […] Assay concentrations (μM) of both parent ‘prodrug’ molecule and psilocin metabolite, as quantified through LC-MS using routine standard curve procedures, were plotted as functions of assay time (minutes). The metabolism rate (T1/2) was determined from the metabolism curve plot using the one phase decay feature of GraphPad PRISM software (Version 9.2.0). The quantity of parent prodrug at time zero was set as 100%.

[10] = 1 mg/kg i.v., 0.25 h, Mean ± SD
[11] = 1 mg/kg i.v., 1 h, individual mice
[12] = 1 mg/kg i.v., 2 h, individual mice
[13] = 1 mg/kg i.v., 4 h, individual mice
[14] = 1 mg/kg i.v., 6 h, individual mice
[15] = 1 mg/kg i.v., 8 h, individual mice
[16] = 3 mg/kg oral, 24 h, individual mice

T1 sequence (P35363 whole entry): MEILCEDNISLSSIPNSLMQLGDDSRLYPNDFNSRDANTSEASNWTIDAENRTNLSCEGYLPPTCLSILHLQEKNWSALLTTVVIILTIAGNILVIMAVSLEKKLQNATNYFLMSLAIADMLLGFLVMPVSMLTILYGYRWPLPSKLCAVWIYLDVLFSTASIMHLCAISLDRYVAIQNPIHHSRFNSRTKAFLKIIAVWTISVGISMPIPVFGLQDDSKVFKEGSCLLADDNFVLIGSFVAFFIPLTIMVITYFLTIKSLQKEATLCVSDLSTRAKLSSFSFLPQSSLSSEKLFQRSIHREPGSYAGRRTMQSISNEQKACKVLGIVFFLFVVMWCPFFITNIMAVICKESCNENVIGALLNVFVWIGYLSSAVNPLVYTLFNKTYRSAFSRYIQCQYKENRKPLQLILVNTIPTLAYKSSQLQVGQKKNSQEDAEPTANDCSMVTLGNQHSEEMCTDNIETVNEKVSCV
5-HT2A receptor (Homo sapiens, UniProt P28223), sequence (P28223 whole entry): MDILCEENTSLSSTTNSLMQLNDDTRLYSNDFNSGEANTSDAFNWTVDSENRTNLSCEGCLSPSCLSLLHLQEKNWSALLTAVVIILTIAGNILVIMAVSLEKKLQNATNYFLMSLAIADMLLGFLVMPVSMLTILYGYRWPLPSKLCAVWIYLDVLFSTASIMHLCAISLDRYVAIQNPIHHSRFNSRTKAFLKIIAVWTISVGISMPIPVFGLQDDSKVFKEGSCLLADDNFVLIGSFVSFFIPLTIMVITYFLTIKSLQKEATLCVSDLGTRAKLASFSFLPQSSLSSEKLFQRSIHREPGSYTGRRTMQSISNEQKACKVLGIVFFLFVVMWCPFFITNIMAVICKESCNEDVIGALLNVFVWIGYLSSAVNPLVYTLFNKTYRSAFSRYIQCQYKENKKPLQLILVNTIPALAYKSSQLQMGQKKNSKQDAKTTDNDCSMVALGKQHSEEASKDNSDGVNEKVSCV

SMILES	Head Twitch Response [1]	stability / conversion to psilocin ([4]; HLM)	stability / conversion to psilocin ([4]; HLS9)	pKi [5]	stability / conversion to psilocin [6]	CD50 (cytotoxicity) [7]	cAMP levels / 5-HT1A receptor modulation [2]	administered compound in plasma after i.v. dosing ([3]; 1 mg/kg i.v.)	Plasma concentration of the administered compound itself ([3]; 1 mg/kg i.v., 5 min, Mean ± SD)	Plasma concentration of the administered compound itself [3, 10]	Plasma concentration of the administered compound itself ([3]; 1 mg/kg i.v., 0.5 h, Mean ± SD)	Plasma concentration of the administered compound itself ([3]; 1 mg/kg i.v., 1 h, Mean ± SD)	Plasma concentration of the administered compound itself [3, 11]	Plasma concentration of the administered compound itself [3, 12]	Plasma concentration of the administered compound itself [3, 13]	Plasma concentration of the administered compound itself [3, 14]	Plasma concentration of the administered compound itself [3, 15]	Plasma concentration of psilocin [3, 16]	administered compound in plasma after oral dosing [3]	5-HT2A competition binding [5]	also measured
CN(C)CCc1c[nH]c2cccc(OC(=O)OCc3ccccc3)c12 [B(II)]	elicit head twitching	did not readily dissociate to psilocin	did not readily dissociate to psilocin	6.56	failed completely to dissociate	65.9 µM															EC50 at 5-HT1A ([2]; forskolin-stimulated +5-HT1A cells): neither molecule engaged 5-HT1A with sufficient potency to calculate an EC50 value; time administered compound resides in plasma post-dosing ([3]; 10 mg/kg oral): up to 4 hours; half-life ([4]; microsomes, pH 7.4): 3.63 h; half-life ([4]; s9, pH 7.4): 8.95 h
CN(C)CCc1c[nH]c2cccc(OC(=O)SCc3ccccc3)c12 [E(VI)]	Elevated incidences of HTR; also recorded: elevated response was observed in mice treated with E(VI) compared to B(II)	quickly converted to psilocin	quickly converted to psilocin	6.89	quickly converted to psilocin; also recorded: nearly completely disappears upon in vitro exposure to AB serum	74.5 µM	mild receptor modulation at higher ligand concentrations	detectable levels of E(VI)	24.4 ± 30.2 ng/mL	63.3 ± 51.7 ng/mL	7.81 ± 6.17 ng/mL	4.49 (n = 2) ng/mL	3.14 ng/mL and No Peak	0.776 ng/mL and No Peak	BLQ (2×) and No Peak	No Peak (2×) and BLQ	No Peak	No Peak (2×) and BLQ	did not yield any detectable levels of E(VI); also recorded: never detected at any timepoint		pIC50 ([8]; blocker (BL)): 4.49; pEC50 ([8]; opener (OP)): < 4.00; Plasma concentration of the administered compound itself ([3]; 1 mg/kg i.v., 2 h, Mean ± SD): 0.685 (n = 2) ng/mL; AUC0-tlast of the administered compound ([3]; 1 mg/kg i.v., Mean ± SD): 19.7 ± 15.9 ng·h/mL; AUC0-tlast/Dose of the administered compound ([3]; 1 mg/kg i.v., Mean ± SD): 19.7 ± 15.9 kg·ng·h/mL/mg; AUC0-tlast/Dose of the administered compound ([3]; 1 mg/kg i.v., individual mice): 20.4 kg·ng·h/mL/mg and 35.2 kg·ng·h/mL/mg and 3.40 kg·ng·h/mL/mg; administered compound in plasma ([3]; 1 mg/kg oral): neither B(II) nor E(VI) were detected in plasma; Plasma concentration of psilocin ([3]; 1 mg/kg oral, 8 h, individual mice): BLQ; Plasma concentration of psilocin ([3]; 1 mg/kg oral, 24 h, individual mice): No Peak; Plasma concentration of psilocin ([3]; 10 mg/kg oral, 24 h, individual mice): BLQ
CN(C)CCc1c[nH]c2cccc(O)c12 [psilocin]							reduction in cAMP levels													binding	
CN(C)CCc1c[nH]c2cccc(OP(=O)(O)O)c12 [psilocybin]		stable in liver fractions with no conversion to psilocin	stable in liver fractions with no conversion to psilocin		stable in serum with no conversion to psilocin			only detectable in i.v. administered animals	144 ± 167 ng/mL	13.2 ± 12.5 ng/mL	4.28 (n = 2) ng/mL	1.21 (n = 1) ng/mL	No Peak (2×) and 1.21 ng/mL	No Peak	No Peak	No Peak	No Peak (2×) and 2.54 ng/mL	BLQ	not detectable in orally administered animals at any dose		stability [9]: stability of psilocybin was confirmed in assay buffer; Plasma concentration of the administered compound itself ([3]; 1 mg/kg i.v., 5 min, individual mice): 19.7 ng/mL and 76.8 ng/mL and 334 ng/mL; Plasma concentration of the administered compound itself ([3]; 1 mg/kg i.v., 0.25 h, individual mice): 3.32 ng/mL and 8.95 ng/mL and 27.2 ng/mL; Plasma concentration of the administered compound itself ([3]; 1 mg/kg i.v., 0.5 h, individual mice): No Peak and 2.35 ng/mL and 6.21 ng/mL; Plasma concentration of psilocin ([3]; 1.56 mg/kg oral, 24 h, individual mice): BLQ
NCCc1c[nH]c2ccc(O)cc12 [serotonin]							reduction in cAMP levels														
N[C@@H](Cc1c[nH]c2ccccc12)C(=O)O [tryptophan]							no reduction in cellular cAMP levels													no binding	
